Molecules are shown by their SMILES. pIC50: −log10 of the molar value.

Assay type in all cases: cell-based
The subject of one series is HIV-1BaL. Nature of the series: HIV MAGI assay, HIV-1BaL. The conditions noted are these: Table 3. The protocol:
(§1) HIV-1 and MAGI Tropism assays can be used to establish activity/cytotoxicity and synergy studies and ADME profiles of compounds are evaluated using in vitro assays such as CYP2D6/3A4 assays and metabolic stability in human and mouse liver microsomes (See Tables 2 and 3).

Series [1] concerns MAGI. The experiment in a line: Cytotoxicity in MAGI HIV-1IIIB assay. Here is the method: as §1
The subject of series [2] is MAGI. The experiment in a line: Cytotoxicity in MAGI HIV-1BaL assay. Here is the method:
as §1

For a further series, the system named is HIV-1IIIB. Nature of the series: HIV MAGI assay, HIV-1IIIB. The conditions noted are these: Table 3. The protocol:
as §1

The mark [3] stands for this setting: Human immunodeficiency virus 1, MAGI.

As for `NCCCCN(CC1NC[C@@H]2CC[C@H]1N2CC[C@H](NC(=O)C1CCC(F)(F)CC1)c1ccccc1)[C@H]1CCCc2cccnc21` (single isomer, unassigned) [LRf isomer 95], in the series on HIV-1BaL, the pIC50 was 5.03 and the IC90 is > 100 µM. Further, the “MAGI HIV-1IIIB TC50” value in the series on MAGI [1] (human) was >10.0 µM. Also, the “MAGI HIV-1BaL TC90” value in the series on MAGI [2] (human) is >100 µM. In the series on HIV-1IIIB, the pIC50 is < 5.00 and the 90% effect concentration (IC90) was > 10 µM.

For the compound `NCCCCN(C[C@H]1CN(CC[C@H](NC(=O)C2CCC(F)(F)CC2)c2ccccc2)CCN1Cc1cnco1)[C@H]1CCCc2cccnc21` [Compound 67], in the series on HIV-1BaL (setting [3]), the negative-log IC50 (pIC50) is 5.63 and the 90% effect concentration (IC90) was 36.7 µM. Also, the “MAGI HIV-1IIIB TC50” value in the series with MAGI [1] (Table 3) was >100 µM. Also, the “MAGI HIV-1BaL TC90” value in the series on MAGI [2] (Table 3, head prints TC90) was >100 µM. Moreover, in the series on HIV-1IIIB (setting [3]), the negative logarithm of the IC50 (pIC50) was 5.50 and the IC90 is 44.6 µM.

Take `NCCCCN(C[C@H]1CN(CC[C@H](NC(=O)C2CCC(F)(F)CC2)c2ccccc2)CCN1CC1COC1)[C@H]1CCCc2cccnc21` [Compound 75, N—((S)-3-((R)-3-(((4-aminobutyl)((S)-5,6,7,8-tetrahydroquinolin-8-yl)amino)methyl)-4-(oxetan-3-ylmethyl)piperazin-1-yl)-1-phenylpropyl)-4,4-difluorocyclohexane-1-carboxamide]: the values for the negative logarithm of the IC50 (pIC50) with HIV-1BaL (setting [3]) and with HIV-1IIIB (setting [3]) were 5.60 and 5.18, respectively. For the same compound, the IC90 in the series with HIV-1BaL (setting [3]) is 97.1 µM; with HIV-1IIIB (setting [3]), 68.5 µM. Besides, the “MAGI HIV-1IIIB TC50” value with MAGI [1] (Table 3) was >100 µM. In the series on MAGI [2] (Table 3, head prints TC90), the “MAGI HIV-1BaL TC90” value was >100 µM.

On to `NCCCCN(C[C@H]1CN(CC[C@H](NC(=O)C2CCC(F)(F)CC2)c2ccccc2)CCN1Cc1cncs1)[C@H]1CCCc2cccnc21` [Compound 66], for which, in the series on HIV-1BaL (setting [3]), the negative logarithm of the IC50 (pIC50) was 6.48 and the IC90 is 4.38 µM. The “MAGI HIV-1IIIB TC50” value in the series with MAGI [1] (Table 3) is >100 µM. In the series on MAGI [2] (Table 3, head prints TC90), the “MAGI HIV-1BaL TC90” value is >100 µM. In the series with HIV-1IIIB (setting [3]), the pIC50 is 4.91 and the IC90 is 65.8 µM.

Take `CN1CCN(CC[C@H](NC(=O)C2CCC(F)(F)CC2)c2ccccc2)C[C@@H]1CN(CCCCN)[C@H]1CCCc2cccnc21` [Compound 68]: in the series with HIV-1BaL (setting [3]), the pIC50 is 5.38 and the IC90 was 66.8 µM. The “MAGI HIV-1IIIB TC50” value in the series with MAGI [1] (Table 3) is >100 µM. Moreover, the “MAGI HIV-1BaL TC90” value with MAGI [2] (Table 3, head prints TC90) is >100 µM. In the series with HIV-1IIIB (setting [3]), the pIC50 is 4.99 and the concentration for an effect of 90% (IC90) stood at 70.2 µM.

Consider `Cn1cncc1CN1CCN(CC[C@H](NC(=O)C2CCC(F)(F)CC2)c2ccccc2)C[C@@H]1CN(CCCCN)[C@H]1CCCc2cccnc21` [Compound 79, N—((S)-3-((R)-3-(((4-aminobutyl)((S)-5,6,7,8-tetrahydroquinolin-8-yl)amino)methyl)-4-((1-methyl-1H-imidazol-5-yl)methyl)piperazin-1-yl)-1-phenylpropyl)-4,4-difluorocyclohexane-1-carboxamide], for which, in the series with HIV-1BaL (setting [3]), the negative-log IC50 (pIC50) is 6.18 and the IC90 was determined as 7.35 µM. Moreover, in the series with MAGI [1] (Table 3), the “MAGI HIV-1IIIB TC50” value is >100 µM. In addition, the “MAGI HIV-1BaL TC90” value in the series with MAGI [2] (Table 3, head prints TC90) is >100 µM. Moreover, in the series with HIV-1IIIB (setting [3]), the negative-log IC50 (pIC50) is 5.59 and the concentration for an effect of 90% (IC90) stood at 36.5 µM.

As for `NCCCCN(CC1NC[C@@H]2CC[C@H]1N2CC[C@H](NC(=O)C1CCC(F)(F)CC1)c1ccccc1)[C@H]1CCCc2cccnc21` (single isomer, unassigned) [URf isomer 95], in the series on HIV-1BaL, the pIC50 was 6.09 and the IC90 amounted to 8.96 µM. Further, the “MAGI HIV-1IIIB TC50” value in the series with MAGI [1] (human) is >10.0 µM. Further, the “MAGI HIV-1BaL TC90” value with MAGI [2] (human) was >100 µM. Moreover, in the series on HIV-1IIIB, the negative logarithm of the IC50 (pIC50) was 6.77 and the IC90 came to 0.9 µM.

Regarding `NCCCCN(C[C@H]1CN(CC[C@H](NC(=O)C2CCC(F)(F)CC2)c2ccccc2)CCN1Cc1cnc[nH]1)[C@H]1CCCc2cccnc21` [Compound 77, N—((S)-3-((R)-4-((1H-imidazol-5-yl)methyl)-3-(((4-aminobutyl)((S)-5,6,7,8-tetrahydroquinolin-8-yl)amino)methyl)piperazin-1-yl)-1-phenylpropyl)-4,4-difluorocyclohexane-1-carboxamide], in the series on HIV-1BaL (setting [3]), the negative-log IC50 (pIC50) is 5.81 and the concentration for an effect of 90% (IC90) is 23 µM. In addition, the “MAGI HIV-1IIIB TC50” value with MAGI [1] (Table 3) is >100 µM. Further, the “MAGI HIV-1BaL TC90” value with MAGI [2] (Table 3, head prints TC90) is >100 µM. Besides, in the series on HIV-1IIIB (setting [3]), the pIC50 is 8.70 and the 90% effect concentration (IC90) was determined as 0.009 µM.

Consider `NCCCCN(C[C@H]1CN(CC[C@H](NC(=O)C2CCC(F)(F)CC2)c2ccccc2)CCN1Cc1ccncc1)[C@H]1CCCc2cccnc21` [Compound 81, N—((S)-3-((R)-3-(((4-aminobutyl)((S)-5,6,7,8-tetrahydroquinolin-8-yl)amino)methyl)-4-(pyridin-4-ylmethyl)piperazin-1-yl)-1-phenylpropyl)-4,4-difluorocyclohexane-1-carboxamide], for which, in the series on HIV-1BaL (setting [3]), the pIC50 was 6.02 and the IC90 was 22.7 µM. Besides, the “MAGI HIV-1IIIB TC50” value in the series with MAGI [1] (Table 3) was >100 µM. Also, the “MAGI HIV-1BaL TC90” value with MAGI [2] (Table 3, head prints TC90) was >100 µM. Also, in the series on HIV-1IIIB (setting [3]), the pIC50 was 5.46 and the 90% effect concentration (IC90) is 52.7 µM.

Values taken from US11649235B2, “Pan-tropic entry inhibitors” (Emory University, priority 2018, dated 2023).
